From ChEMBL document CHEMBL1177848, “Synthesis of novel 6,6a,7,8-tetrahydro-5H-naphtho[1,2-e]pyrimido[4,5-b][1,4]diazepines under microwave irradiation as potential anti-tumor agents” (2010)
Calls of active or inactive are those of the source.

Experiments:
Format in all cases: functional, cell-based
RPMI-8226 = assay: Growth inhibition of human RPMI8226 cells at 1 uM after 48 hrs by sulforhodamine B assay
SR = assay: Growth inhibition of human SR cells at 1 uM after 48 hrs by sulforhodamine B assay
CCRF-CEM = assay: Growth inhibition of human CCRF-CEM cells at 1 uM after 48 hrs by sulforhodamine B assay
HL-60 = assay: Growth inhibition of human HL-60(TB) cells at 1 uM after 48 hrs by sulforhodamine B assay
K562 = assay: Growth inhibition of human K562 cells at 1 uM after 48 hrs by sulforhodamine B assay
MOLT-4 = assay: Growth inhibition of human MOLT4 cells at 1 uM after 48 hrs by sulforhodamine B assay
EKVX = assay: Growth inhibition of human EKVX cells at 1 uM after 48 hrs by sulforhodamine B assay
HOP-92 = assay: Growth inhibition of human HOP92 cells at 1 uM after 48 hrs by sulforhodamine B assay
NCI-H226 = assay: Growth inhibition of human NCI-H226 cells at 1 uM after 48 hrs by sulforhodamine B assay
NCI-H23 = assay: Growth inhibition of human NCI-H23 cells at 1 uM after 48 hrs by sulforhodamine B assay
NCI-H460 = assay: Growth inhibition of human NCI-H460 cells at 1 uM after 48 hrs by sulforhodamine B assay
NCI-H522 = assay: Growth inhibition of human NCI-H522 cells at 1 uM after 48 hrs by sulforhodamine B assay
HOP-62 = assay: Growth inhibition of human HOP62 cells at 1 uM after 48 hrs by sulforhodamine B assay
NCI-H322M = assay: Growth inhibition of human […] cells at 1 uM after 48 hrs by sulforhodamine B assay
A549 = assay: Growth inhibition of human A549 cells at 1 uM after 48 hrs by sulforhodamine B assay
COLO 205 = assay: Growth inhibition of human COLO205 cells at 1 uM after 48 hrs by sulforhodamine B assay
HCT-116 = assay: Growth inhibition of human HCT116 cells at 1 uM after 48 hrs by sulforhodamine B assay
HCT-15 = assay: Growth inhibition of human HCT15 cells at 1 uM after 48 hrs by sulforhodamine B assay
HT-29 = assay: Growth inhibition of human HT-29 cells at 1 uM after 48 hrs by sulforhodamine B assay
KM12 = assay: Growth inhibition of human KM12 cells at 1 uM after 48 hrs by sulforhodamine B assay
SW-620 = assay: Growth inhibition of human SW620 cells at 1 uM after 48 hrs by sulforhodamine B assay
HCC 2998 = assay: Growth inhibition of human HCC2998 cells at 1 uM after 48 hrs by sulforhodamine B assay
SF-295 = assay: Growth inhibition of human SF295 cells at 1 uM after 48 hrs by sulforhodamine B assay
SF-539 = assay: Growth inhibition of human SF539 cells at 1 uM after 48 hrs by sulforhodamine B assay
U-251 = assay: Growth inhibition of human U251 cells at 1 uM after 48 hrs by sulforhodamine B assay
SF-268 = assay: Growth inhibition of human SF268 cells at 1 uM after 48 hrs by sulforhodamine B assay
SF530 = assay: Growth inhibition of human SF530 cells at 1 uM after 48 hrs by sulforhodamine B assay
SNB-75 = assay: Growth inhibition of human SNB75 cells at 1 uM after 48 hrs by sulforhodamine B assay
LOX IMVI = assay: Growth inhibition of human LOXIMVI cells at 1 uM after 48 hrs by sulforhodamine B assay
Malme-3M = assay: Growth inhibition of human MALME-3M cells at 1 uM after 48 hrs by sulforhodamine B assay
MDA-MB-435 = assay: Growth inhibition of human MDA-MB-435 cells at 1 uM after 48 hrs by sulforhodamine B assay
SK-MEL-5 = assay: Growth inhibition of human SK-MEL-5 cells at 1 uM after 48 hrs by sulforhodamine B assay
UACC-257 = assay: Growth inhibition of human UACC257 cells at 1 uM after 48 hrs by sulforhodamine B assay
UACC-62 = assay: Growth inhibition of human UACC62 cells at 1 uM after 48 hrs by sulforhodamine B assay
SK-MEL-2 = assay: Growth inhibition of human SK-MEL-2 cells at 1 uM after 48 hrs by sulforhodamine B assay
M14 = assay: Growth inhibition of human M14 cells at 1 uM after 48 hrs by sulforhodamine B assay
SK-MEL-28 = assay: Growth inhibition of human SK-MEL-28 cells at 1 uM after 48 hrs by sulforhodamine B assay
IGROV-1 = assay: Growth inhibition of human IGROV1 cells at 1 uM after 48 hrs by sulforhodamine B assay
OVCAR-3 = assay: Growth inhibition of human OVCAR-3 cells at 1 uM after 48 hrs by sulforhodamine B assay
OVCAR-4 = assay: Growth inhibition of human OVCAR4 cells at 1 uM after 48 hrs by sulforhodamine B assay
NCI/ADR-RES = assay: Growth inhibition of human NCI/ADR-RES cells at 1 uM after 48 hrs by sulforhodamine B assay
OVCAR-8 = assay: Growth inhibition of human OVCAR8 cells at 1 uM after 48 hrs by sulforhodamine B assay
A498 = assay: Growth inhibition of human A498 cells at 1 uM after 48 hrs by sulforhodamine B assay
ACHN = assay: Growth inhibition of human ACHN cells at 1 uM after 48 hrs by sulforhodamine B assay
CAKI-1 = assay: Growth inhibition of human Caki1 cells at 1 uM after 48 hrs by sulforhodamine B assay
RXF 393 = assay: Growth inhibition of human RXF393 cells at 1 uM after 48 hrs by sulforhodamine B assay
SN12C = assay: Growth inhibition of human SN12C cells at 1 uM after 48 hrs by sulforhodamine B assay
TK-10 = assay: Growth inhibition of human TK10 cells at 1 uM after 48 hrs by sulforhodamine B assay
UO-31 = assay: Growth inhibition of human UO31 cells at 1 uM after 48 hrs by sulforhodamine B assay
786-0 = assay: Growth inhibition of human 786-0 cells at 1 uM after 48 hrs by sulforhodamine B assay
PC-3 = assay: Growth inhibition of human PC3 cells at 1 uM after 48 hrs by sulforhodamine B assay
DU-145 = assay: Growth inhibition of human DU145 cells at 1 uM after 48 hrs by sulforhodamine B assay
MCF7 = assay: Growth inhibition of human MCF7 cells at 1 uM after 48 hrs by sulforhodamine B assay
MDA-MB-231 = assay: Growth inhibition of human MDA-MB-231 cells at 1 uM after 48 hrs by sulforhodamine B assay
BT-549 = assay: Growth inhibition of human BT549 cells at 1 uM after 48 hrs by sulforhodamine B assay
T47D = assay: Growth inhibition of human T47D cells at 1 uM after 48 hrs by sulforhodamine B assay
MDA-MB-468 = assay: Growth inhibition of human MDA-MB-468 cells at 1 uM after 48 hrs by sulforhodamine B assay
Hs-578T = assay: Growth inhibition of human Hs 578T cells at 1 uM after 48 hrs by sulforhodamine B assay

Measured: growth inhibition (GI)

Nc1ncnc2c1N=C1c3ccccc3CCC1C(c1ccccc1)N2 (stereo not drawn)
active: RPMI-8226 | SR | CCRF-CEM | HL-60 | K562 | MOLT-4 | EKVX | HOP-92 | NCI-H226 | NCI-H23 | NCI-H460 | NCI-H522 | HOP-62 | NCI-H322M | A549 | COLO 205 | HCT-116 | HCT-15 | HT-29 | KM12 | SW-620 | HCC 2998 | SF-295 | SF-539 | U-251 | SF-268 | SF530 | SNB-75 | LOX IMVI | Malme-3M | MDA-MB-435 | SK-MEL-5 | UACC-257 | UACC-62 | SK-MEL-2 | M14 | SK-MEL-28 | IGROV-1 | OVCAR-3 | OVCAR-4 | NCI/ADR-RES | OVCAR-8 | A498 | ACHN | CAKI-1 | RXF 393 | SN12C | TK-10 | UO-31 | 786-0 | PC-3 | DU-145 | MCF7 | MDA-MB-231 | BT-549 | T47D | MDA-MB-468 | Hs-578T
